Experimental data as given in PubChem BioAssay AID2060491 (Molecular Pharmacology Branch, DTP, NCI, 2025).

System: 857933-349-R-J2-PDC complex spheroids, viability
Experiment: Anticancer human tumor 857933-349-R-J2-PDC patient-derived colon adenocarcinoma cell line growth inhibition [GQUAD]
Conditions: for IC50: curve of first compound; for viability, T/C: stronger effect = lower value
How it was run: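 Viability of tumor cells grown as complex spheroids with endothelial and stromal cells, exposed to drug combinations. Top concentration at or near clinical Cmax (else 10 microM), diluted in half-log increments.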

[1] = second compound 0.0316 µM, first compound 0.000999 µM
[2] = second compound 0.0316 µM, first compound 0.00316 µM
[3] = second compound 0.0316 µM, first compound 0.00999 µM
[4] = second compound 0.0316 µM, first compound 0.0316 µM
[5] = second compound 0.0316 µM, first compound 0.0999 µM
[6] = second compound 0.0316 µM, first compound 0.316 µM
[7] = second compound 0.1 µM, first compound 0.000999 µM
[8] = second compound 0.1 µM, first compound 0.00316 µM
[9] = second compound 0.1 µM, first compound 0.00999 µM
[10] = second compound 0.1 µM, first compound 0.0316 µM
[11] = second compound 0.1 µM, first compound 0.0999 µM
[12] = second compound 0.1 µM, first compound 0.316 µM
[13] = second compound 0.316 µM, first compound 0.000999 µM
[14] = second compound 0.316 µM, first compound 0.00316 µM
[15] = second compound 0.316 µM, first compound 0.00999 µM
[16] = second compound 0.316 µM, first compound 0.0316 µM
[17] = second compound 0.316 µM, first compound 0.0999 µM
[18] = second compound 0.316 µM, first compound 0.316 µM
[19] = second compound 1 µM, first compound 0.000999 µM
[20] = second compound 1 µM, first compound 0.00316 µM
[21] = second compound 1 µM, first compound 0.00999 µM
[22] = second compound 1 µM, first compound 0.0316 µM
[23] = second compound 1 µM, first compound 0.0999 µM
[24] = second compound 1 µM, first compound 0.316 µM
[25] = second compound 3.16 µM, first compound 0.000999 µM
[26] = second compound 3.16 µM, first compound 0.00316 µM
[27] = second compound 3.16 µM, first compound 0.00999 µM
[28] = second compound 3.16 µM, first compound 0.0316 µM
[29] = second compound 3.16 µM, first compound 0.0999 µM
[30] = second compound 3.16 µM, first compound 0.316 µM
[31] = second compound 10 µM, first compound 0.000999 µM
[32] = second compound 10 µM, first compound 0.00316 µM
[33] = second compound 10 µM, first compound 0.00999 µM
[34] = second compound 10 µM, first compound 0.0316 µM
[35] = second compound 10 µM, first compound 0.0999 µM
[36] = second compound 10 µM, first compound 0.316 µM
[37] = second compound 0.0316 µM, first compound 0.1 µM
[38] = second compound 0.0316 µM, first compound 1 µM
[39] = second compound 0.0316 µM, first compound 3.16 µM
[40] = second compound 0.0316 µM, first compound 10 µM
[41] = second compound 0.1 µM, first compound 0.1 µM
[42] = second compound 0.1 µM, first compound 1 µM
[43] = second compound 0.1 µM, first compound 3.16 µM
[44] = second compound 0.1 µM, first compound 10 µM
[45] = second compound 0.316 µM, first compound 0.1 µM
[46] = second compound 0.316 µM, first compound 1 µM
[47] = second compound 0.316 µM, first compound 3.16 µM
[48] = second compound 0.316 µM, first compound 10 µM
[49] = second compound 1 µM, first compound 0.1 µM
[50] = second compound 1 µM, first compound 1 µM
[51] = second compound 1 µM, first compound 3.16 µM
[52] = second compound 1 µM, first compound 10 µM
[53] = second compound 3.16 µM, first compound 0.1 µM
[54] = second compound 3.16 µM, first compound 1 µM
[55] = second compound 3.16 µM, first compound 3.16 µM
[56] = second compound 3.16 µM, first compound 10 µM
[57] = second compound 10 µM, first compound 0.1 µM
[58] = second compound 10 µM, first compound 1 µM
[59] = second compound 10 µM, first compound 3.16 µM
[60] = second compound 10 µM, first compound 10 µM
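Also: spheroids exposed to compounds for one week before readout.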
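For viability, T/C in this document: percent viability relative to vehicle DMSO wells taken as 100%.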

CCc1c2c(nc3ccc(O)cc13)-c1cc3c(c(=O)n1C2)COC(=O)[C@]3(O)CC + CN(C)c1ccc(Nc2c3ccc(NC(=O)CCN4CCCC4)cc3nc3cc(NC(=O)CCN4CCCC4)ccc23)cc1
IC50 (second compound 0.0316 µM): 16.1 nM
IC50 (second compound 0.1 µM): 15.6 nM
IC50 (second compound 0.316 µM): 15.3 nM
IC50 (second compound 1 µM): 13.2 nM
IC50 (second compound 3.16 µM): 14.5 nM
IC50 (second compound 10 µM): 24 nM
viability, T/C [1]: 95.6%
viability, T/C [2]: 78.4%
viability, T/C [3]: 55.4%
viability, T/C [4]: 40.4%
viability, T/C [5]: 21.6%
viability, T/C [6]: 5.95%
viability, T/C [7]: 94.2%
viability, T/C [8]: 81.8%
viability, T/C [9]: 59.9%
viability, T/C [10]: 33.8%
viability, T/C [11]: 18.5%
viability, T/C [12]: 7.59%
viability, T/C [13]: 98%
viability, T/C [14]: 82.3%
viability, T/C [15]: 57.6%
viability, T/C [16]: 34%
viability, T/C [17]: 21.5%
viability, T/C [18]: 5.15%
viability, T/C [19]: 93.5%
viability, T/C [20]: 77%
viability, T/C [21]: 55.9%
viability, T/C [22]: 31.4%
viability, T/C [23]: 20.2%
viability, T/C [24]: 5.78%
viability, T/C [25]: 89.9%
viability, T/C [26]: 77.6%
viability, T/C [27]: 58.3%
viability, T/C [28]: 31.9%
viability, T/C [29]: 21.7%
viability, T/C [30]: 7.69%
viability, T/C [31]: 70.4%
viability, T/C [32]: 67.4%
viability, T/C [33]: 59%
viability, T/C [34]: 48.2%
viability, T/C [35]: 27.8%
viability, T/C [36]: 14.2%

Cc1[nH]c2ccccc2c1CCNCc1ccc(/C=C/C(=O)NO)cc1 + CN(C)c1ccc(Nc2c3ccc(NC(=O)CCN4CCCC4)cc3nc3cc(NC(=O)CCN4CCCC4)ccc23)cc1
IC50 (second compound 0.0316 µM): > 316 nM
IC50 (second compound 0.1 µM): > 316 nM
IC50 (second compound 0.316 µM): > 316 nM
IC50 (second compound 1 µM): > 316 nM
IC50 (second compound 3.16 µM): > 316 nM
IC50 (second compound 10 µM): > 316 nM
viability, T/C [1]: 105%
viability, T/C [2]: 99.6%
viability, T/C [3]: 109%
viability, T/C [4]: 101%
viability, T/C [5]: 109%
viability, T/C [6]: 60.2%
viability, T/C [7]: 105%
viability, T/C [8]: 102%
viability, T/C [9]: 99.3%
viability, T/C [10]: 103%
viability, T/C [11]: 101%
viability, T/C [12]: 61.5%
viability, T/C [13]: 104%
viability, T/C [14]: 103%
viability, T/C [15]: 103%
viability, T/C [16]: 99.8%
viability, T/C [17]: 117%
viability, T/C [18]: 60.5%
viability, T/C [19]: 97.1%
viability, T/C [20]: 91.7%
viability, T/C [21]: 95.7%
viability, T/C [22]: 97.9%
viability, T/C [23]: 105%
viability, T/C [24]: 59.5%
viability, T/C [25]: 80.6%
viability, T/C [26]: 79.8%
viability, T/C [27]: 93.5%
viability, T/C [28]: 80.6%
viability, T/C [29]: 91.7%
viability, T/C [30]: 55.1%
viability, T/C [31]: 64%
viability, T/C [32]: 73.2%
viability, T/C [33]: 70%
viability, T/C [34]: 76.4%
viability, T/C [35]: 72.2%
viability, T/C [36]: 41.7%

O=C(c1cc(Cc2n[nH]c(=O)c3ccccc23)ccc1F)N1CCN(C(=O)C2CC2)CC1 + Cc1[nH]c2ccc(F)cc2c1-c1nc2c3cccnc3c3ncccc3c2[nH]1
IC50 (second compound 0.0316 µM): > 10000 nM
IC50 (second compound 0.1 µM): > 10000 nM
IC50 (second compound 0.316 µM): > 10000 nM
IC50 (second compound 1 µM): > 10000 nM
IC50 (second compound 3.16 µM): > 10000 nM
IC50 (second compound 10 µM): > 10000 nM
viability, T/C [4]: 108%
viability, T/C [37]: 95.7%
viability, T/C [6]: 98.1%
viability, T/C [38]: 96.8%
viability, T/C [39]: 118%
viability, T/C [40]: 93.4%
viability, T/C [10]: 113%
viability, T/C [41]: 112%
viability, T/C [12]: 92%
viability, T/C [42]: 100%
viability, T/C [43]: 98.5%
viability, T/C [44]: 101%
viability, T/C [16]: 102%
viability, T/C [45]: 110%
viability, T/C [18]: 106%
viability, T/C [46]: 97.1%
viability, T/C [47]: 103%
viability, T/C [48]: 90.9%
viability, T/C [22]: 92.5%
viability, T/C [49]: 99.7%
viability, T/C [24]: 95.7%
viability, T/C [50]: 97.6%
viability, T/C [51]: 103%
viability, T/C [52]: 96.5%
viability, T/C [28]: 99.2%
viability, T/C [53]: 105%
viability, T/C [30]: 98.3%
viability, T/C [54]: 98.6%
viability, T/C [55]: 100%
viability, T/C [56]: 108%
viability, T/C [34]: 99.9%
viability, T/C [57]: 100%
viability, T/C [36]: 101%
viability, T/C [58]: 99.8%
viability, T/C [59]: 99.3%
viability, T/C [60]: 98%

Cc1cccc(N(C)C(=O)C2C(O)CCN2c2nc(C)cc(C(F)(F)F)c2C#N)c1 (stereo not drawn) + CN(C)c1ccc(Nc2c3ccc(NC(=O)CCN4CCCC4)cc3nc3cc(NC(=O)CCN4CCCC4)ccc23)cc1
IC50 (second compound 0.0316 µM): > 10000 nM
IC50 (second compound 0.1 µM): > 10000 nM
IC50 (second compound 0.316 µM): > 10000 nM
IC50 (second compound 1 µM): > 10000 nM
IC50 (second compound 3.16 µM): > 10000 nM
IC50 (second compound 10 µM): > 10000 nM
viability, T/C [4]: 106%
viability, T/C [37]: 106%
viability, T/C [6]: 101%
viability, T/C [38]: 105%
viability, T/C [39]: 103%
viability, T/C [40]: 99.3%
viability, T/C [10]: 101%
viability, T/C [41]: 107%
viability, T/C [12]: 100%
viability, T/C [42]: 102%
viability, T/C [43]: 103%
viability, T/C [44]: 99.2%
viability, T/C [16]: 104%
viability, T/C [45]: 103%
viability, T/C [18]: 98.5%
viability, T/C [46]: 102%
viability, T/C [47]: 108%
viability, T/C [48]: 98%
viability, T/C [22]: 104%
viability, T/C [49]: 90.3%
viability, T/C [24]: 94.3%
viability, T/C [50]: 93.5%
viability, T/C [51]: 96.7%
viability, T/C [52]: 88.2%
viability, T/C [28]: 89.9%
viability, T/C [53]: 78.1%
viability, T/C [30]: 83.8%
viability, T/C [54]: 78.6%
viability, T/C [55]: 87%
viability, T/C [56]: 74.2%
viability, T/C [34]: 68.8%
viability, T/C [57]: 71.7%
viability, T/C [36]: 76.5%
viability, T/C [58]: 74.7%
viability, T/C [59]: 69.8%
viability, T/C [60]: 63.5%
